# Measurements as given in ChEMBL document CHEMBL3792365, “Dioxol and dihydrodioxin analogs of 2- and 3-phenylacetonitriles as potent anti-cancer agents with nanomolar activity against a variety of human cancer cells” (2016).
# What was measured:
# Assay type in all cases: functional
# [1] = Growth inhibition of human OVCAR8 cells at 10 uM after 48 hrs by sulforhodamine B assay; settings: OVCAR-8, 48 h, values are per cent of control
# [2] = system: NCI-H460; assay: Growth inhibition of human NCI-H460 cells at 10 uM after 48 hrs by sulforhodamine B assay; settings: NCI-H460, 48 h, values are per cent of control
# [3] = system: MDA-MB-231; assay: Growth inhibition of human MDA-MB-231 cells at 10 uM after 48 hrs by sulforhodamine B assay; settings: MDA-MB-231, 48 h, values are per cent of control
# [4] = system: M14; assay: Growth inhibition of human M14 cells at 10 uM after 48 hrs by sulforhodamine B assay; settings: M14, 48 h, values are per cent of control
# [5] = system: NCI-H23; assay: Growth inhibition of human NCI-H23 cells at 10 uM after 48 hrs by sulforhodamine B assay; settings: NCI-H23, 48 h, values are per cent of control
# [6] = system: SK-MEL-5; assay: Growth inhibition of human SK-MEL-5 cells at 10 uM after 48 hrs by sulforhodamine B assay; settings: SK-MEL-5, 48 h, values are per cent of control
# [7] = system: NCI-H322M; assay: Growth inhibition of human NCI-H322M cells at 10 uM after 48 hrs by sulforhodamine B assay; settings: values are per cent of control
# [8] = Growth inhibition of human SKOV3 cells at 10 uM after 48 hrs by sulforhodamine B assay; settings: SK-OV-3, 48 h, values are per cent of control
# [9] = Growth inhibition of human DU145 cells at 10 uM after 48 hrs by sulforhodamine B assay; settings: DU-145, 48 h, values are per cent of control
# [10] = system: K562; assay: Growth inhibition of human K562 cells at 10 uM after 48 hrs by sulforhodamine B assay; settings: K562, 48 h, values are per cent of control
# [11] = Growth inhibition of human UACC62 cells at 10 uM after 48 hrs by sulforhodamine B assay; settings: UACC-62, 48 h, values are per cent of control
# [12] = system: MDA-MB-435; assay: Growth inhibition of human MDA-MB-435 cells at 10 uM after 48 hrs by sulforhodamine B assay; settings: MDA-MB-435, 48 h, values are per cent of control
# [13] = Growth inhibition of human HCT116 cells at 10 uM after 48 hrs by sulforhodamine B assay; settings: HCT-116, 48 h, values are per cent of control
# [14] = system: NCI-H522; assay: Growth inhibition of human NCI-H522 cells at 10 uM after 48 hrs by sulforhodamine B assay; settings: NCI-H522, 48 h, values are per cent of control
# [15] = Growth inhibition of human OVCAR5 cells at 10 uM after 48 hrs by sulforhodamine B assay; settings: OVCAR-5, 48 h, values are per cent of control
# [16] = Growth inhibition of human LOXIMVI cells at 10 uM after 48 hrs by sulforhodamine B assay; settings: LOX IMVI, values are per cent of control
# [17] = Growth inhibition of human BT549 cells at 10 uM after 48 hrs by sulforhodamine B assay; settings: BT-549, 48 h, values are per cent of control
# [18] = Growth inhibition of human HCT15 cells at 10 uM after 48 hrs by sulforhodamine B assay; settings: HCT-15, 48 h, values are per cent of control
# [19] = system: NCI-H226; assay: Growth inhibition of human NCI-H226 cells at 10 uM after 48 hrs by sulforhodamine B assay; settings: NCI-H226, 48 h, values are per cent of control
# [20] = Growth inhibition of human SNB19 cells at 10 uM after 48 hrs by sulforhodamine B assay; settings: SNB-19, 48 h, values are per cent of control
# [21] = Growth inhibition of human SF295 cells at 10 uM after 48 hrs by sulforhodamine B assay; settings: SF-295, 48 h, values are per cent of control
# [22] = Growth inhibition of human SW620 cells at 10 uM after 48 hrs by sulforhodamine B assay; settings: SW-620, 48 h, values are per cent of control
# [23] = system: A498; assay: Growth inhibition of human A498 cells at 10 uM after 48 hrs by sulforhodamine B assay; settings: A498, 48 h, values are per cent of control
# [24] = Growth inhibition of human Hs 578T cells at 10 uM after 48 hrs by sulforhodamine B assay; settings: values are per cent of control
# [25] = Growth inhibition of human NCI-ADR-RES cells at 10 uM after 48 hrs by sulforhodamine B assay; settings: values are per cent of control
# [26] = system: A549; assay: Growth inhibition of human A549/ATCC cells at 10 uM after 48 hrs by sulforhodamine B assay; settings: A549, 48 h, values are per cent of control
# [27] = Growth inhibition of human Caki1 cells at 10 uM after 48 hrs by sulforhodamine B assay; settings: CAKI-1, 48 h, values are per cent of control
# [28] = Growth inhibition of human TK10 cells at 10 uM after 48 hrs by sulforhodamine B assay; settings: TK-10, 48 h, values are per cent of control
# [29] = Growth inhibition of human OVCAR4 cells at 10 uM after 48 hrs by sulforhodamine B assay; settings: OVCAR-4, 48 h, values are per cent of control
# [30] = Growth inhibition of human COLO205 cells at 10 uM after 48 hrs by sulforhodamine B assay; settings: COLO 205, 48 h, values are per cent of control
# [31] = system: KM12; assay: Growth inhibition of human KM12 cells at 10 uM after 48 hrs by sulforhodamine B assay; settings: KM12, 48 h, values are per cent of control
# [32] = Growth inhibition of human SF268 cells at 10 uM after 48 hrs by sulforhodamine B assay; settings: SF-268, 48 h, values are per cent of control
# [33] = system: ACHN; assay: Growth inhibition of human ACHN cells at 10 uM after 48 hrs by sulforhodamine B assay; settings: values are per cent of control
# [34] = system: SN12C; assay: Growth inhibition of human SN12C cells at 10 uM after 48 hrs by sulforhodamine B assay; settings: values are per cent of control
# [35] = system: HT-29; assay: Growth inhibition of human HT-29 cells at 10 uM after 48 hrs by sulforhodamine B assay; settings: HT-29, 48 h, values are per cent of control
# [36] = system: T47D; assay: Growth inhibition of human T47D cells at 10 uM after 48 hrs by sulforhodamine B assay; settings: values are per cent of control
# [37] = system: SR; assay: Growth inhibition of human SR cells at 10 uM after 48 hrs by sulforhodamine B assay; settings: values are per cent of control
# [38] = Growth inhibition of human SF539 cells at 10 uM after 48 hrs by sulforhodamine B assay; settings: SF-539, 48 h, values are per cent of control
# [39] = system: U-251; assay: Growth inhibition of human U251 cells at 10 uM after 48 hrs by sulforhodamine B assay; settings: U-251, 48 h, values are per cent of control
# [40] = system: MDA-MB-468; assay: Growth inhibition of human MDA-MB-468 cells at 10 uM after 48 hrs by sulforhodamine B assay; settings: MDA-MB-468, 48 h, values are per cent of control
compound,measurement,setting,value
N#C/C(=C\c1cccc2ccccc12)c1ccc2c(c1)OCO2,"growth, % of control at 10 µM",[1],99%
same,"growth, % of control at 10 µM",[2],77.8%
same,"growth, % of control at 10 µM",[3],48.3%
same,"growth, % of control at 10 µM",[4],37.9%
same,"growth, % of control at 10 µM",[5],77.7%
same,"growth, % of control at 10 µM",[6],66.2%
same,"growth, % of control at 10 µM",[7],90.5%
same,"growth, % of control at 10 µM",[8],61.9%
same,"growth, % of control at 10 µM",[9],77.7%
same,"growth, % of control at 10 µM",[10],21.7%
same,"growth, % of control at 10 µM",[11],44.7%
same,"growth, % of control at 10 µM",[12],-28.5%
same,"growth, % of control at 10 µM",[13],32.7%
same,"growth, % of control at 10 µM",[14],47.6%
same,"growth, % of control at 10 µM",[15],98.2%
same,"growth, % of control at 10 µM",[16],65.2%
same,"growth, % of control at 10 µM",[17],51.8%
same,"growth, % of control at 10 µM",[18],40.6%
same,"growth, % of control at 10 µM",[19],83%
same,"growth, % of control at 10 µM",[20],82.1%
same,"growth, % of control at 10 µM",[21],68.2%
same,"growth, % of control at 10 µM",[22],35.2%
same,"growth, % of control at 10 µM",[23],35.7%
same,"growth, % of control at 10 µM",[24],65.5%
same,"growth, % of control at 10 µM",[25],36.5%
same,"growth, % of control at 10 µM",[26],55.9%
same,"growth, % of control at 10 µM",[27],61.2%
same,"growth, % of control at 10 µM",[28],78.2%
same,"growth, % of control at 10 µM",[29],68.9%
same,"growth, % of control at 10 µM",[30],56%
same,"growth, % of control at 10 µM",[31],39.2%
same,"growth, % of control at 10 µM",[32],71%
same,"growth, % of control at 10 µM",[33],79.3%
same,"growth, % of control at 10 µM",[34],75.9%
same,"growth, % of control at 10 µM",[35],23.5%
same,"growth, % of control at 10 µM",[36],67.9%
same,"growth, % of control at 10 µM",[37],23.8%
same,"growth, % of control at 10 µM",[38],67.9%
same,"growth, % of control at 10 µM",[39],47.3%
same,"growth, % of control at 10 µM",[40],25.9%
N#C/C(=C\c1ccc(Cl)cc1Cl)c1ccc2c(c1)OCO2,"growth, % of control at 10 µM",[1],104%
same,"growth, % of control at 10 µM",[2],103%
same,"growth, % of control at 10 µM",[3],119%
same,"growth, % of control at 10 µM",[4],88.7%
same,"growth, % of control at 10 µM",[5],96.3%
same,"growth, % of control at 10 µM",[6],98.9%
same,"growth, % of control at 10 µM",[7],86.4%
same,"growth, % of control at 10 µM",[8],97.3%
same,"growth, % of control at 10 µM",[9],99.3%
same,"growth, % of control at 10 µM",[10],76.2%
same,"growth, % of control at 10 µM",[11],81.9%
same,"growth, % of control at 10 µM",[12],50.7%
same,"growth, % of control at 10 µM",[13],99.5%
same,"growth, % of control at 10 µM",[14],75.8%
same,"growth, % of control at 10 µM",[15],106%
same,"growth, % of control at 10 µM",[16],103%
same,"growth, % of control at 10 µM",[17],86.4%
same,"growth, % of control at 10 µM",[18],82.9%
same,"growth, % of control at 10 µM",[19],113%
same,"growth, % of control at 10 µM",[20],99.8%
same,"growth, % of control at 10 µM",[21],97.5%
same,"growth, % of control at 10 µM",[22],106%
same,"growth, % of control at 10 µM",[23],101%
same,"growth, % of control at 10 µM",[24],135%
same,"growth, % of control at 10 µM",[25],100%
same,"growth, % of control at 10 µM",[26],92.3%
same,"growth, % of control at 10 µM",[27],86.9%
same,"growth, % of control at 10 µM",[28],90.7%
same,"growth, % of control at 10 µM",[29],88.7%
same,"growth, % of control at 10 µM",[30],99%
same,"growth, % of control at 10 µM",[31],76%
same,"growth, % of control at 10 µM",[32],94.4%
same,"growth, % of control at 10 µM",[33],102%
same,"growth, % of control at 10 µM",[34],102%
same,"growth, % of control at 10 µM",[35],89.7%
same,"growth, % of control at 10 µM",[36],76.3%
same,"growth, % of control at 10 µM",[37],68.7%
same,"growth, % of control at 10 µM",[38],93.8%
same,"growth, % of control at 10 µM",[39],91.1%
same,"growth, % of control at 10 µM",[40],82.1%
